The results in this text go back to patent US20090252786A1, “Use of a Biologically Active Blood Serum for the Treatment of a Disorder Characterized in a Reduced Function of a GABA Receptor” (priority 2008, published 2009).

The structures appear in SMILES notation. Values joined by “and” are separate entries in the source; they are usually repeats but may differ in a detail not shown here. Equal values may be shown once.

For test [1], the system named is pyramidal cell layer of CA1, hippocampus slices. The experiment in a line: hippocampus slice, provocation with bicuculline. Further details: species or system rat. The conditions noted are these: bicuculline 50 μM alone, mean of 4 slices, one mean per series. The text has this: (§1) Hippocampus slices were obtained from 11 adult male Sprague-Dawlay rats (Charles River Wiga, Sulzbach, Germany). Rats were kept under a reversed day-night cycle for 2 weeks prior start of the experiments, to allow recording of in-vitro activity from slices during the active phase of their circadian rhythm (Dimpfel et al., 1994, Dimpfel et al., 1995). Animals were exsanguinated under ether anaesthesia, the brain was removed in total and the hippocampal formation was isolated under microstereoscopic sight. The midsection of the hippocampus was fixed to the table of a vibrating microtome (Rhema Labortechnik, Hofheim, Germany) using a cyanoacrylate adhesive, submerged in chilled bicarbonate-buffered saline (artificial cerebro spinal fluid (ACSF) NaCl: 124 mM; KCl: 5 mM; CaCl2: 2 mM; MgSO4: 2 mM; NaHCO3: 26 mM; and glucose: 10 mM), and cut into slices of 400 μm thickness. All slices were preincubated for at least 1 h in carbogen ([…])-saturated ACSF (pH 7.4) in a prechamber before use (see also Dimpfel et al., 1991).
During the experiment the slices were held and treated in a special Superfusion chamber (List Electronics, Darmstadt, Germany) at 35° C. according to Haas et al., 1979 (see also: Schiff and Somjen, 1985). Four slices were used from one rat per day under one of the test conditions (control or various concentrations of the S1 compound). […]

Test [2] has the same test system. The experiment in a line: hippocampus slice, provocation with pentylenetetrazol. The conditions noted are these: PTZ 50 μM alone. Further details: species or system rat.
Description: as §1
During the experiment the slices were held and treated in a special Superfusion chamber (List Electronics, Darmstadt, Germany) at 35° C. according to Haas et al., 1979 (see also: Schiff and Somjen, 1985). Four slices were used from one rat per day under one of the test conditions (control or various concentrations of the S1 compound). The preparation was superfused with artificial cerebrospinal fluid (ACSF) at 180-230 ml/h. Electrical stimulation (200 μA constant current pulses of 200 μs pulse width) of the Schaffer Collaterals within the […] area and recording of extracellular field potentials from the pyramidal cell layer of CA1 (Dimpfel et al., 1991) as shown in FIG. 4 and FIG. 5 was performed according to conventional electrophysiological methods using the “Labteam” Computer system and “NeuroTool” software package (Medisyst GmbH, Linden, Germany). Measurements were performed at 10 min intervals to avoid potentiation mechanisms. Four stimulations—each 20 seconds apart—were averaged for each time point. […]

Consider `CN1CCc2cc3c(cc2[C@H]1[C@@H]1OC(=O)c2c1ccc1c2OCO1)OCO3` [Bicuculline], for which the “population spike amplitude in % of ACSF value, Bicuculline 50 μM, mean (X)” value in test [1] is 256.6% and 248.7% and 237.6% and 249.6%.
`C1CCc2nnnn2CC1` [PTZ, 6,7,8,9-tetrahydro-5h-tetrazolo(1,5-a)azepine]: in test [2] (mean of 4 slices), the “population spike amplitude in % of ACSF value, PTZ 50 μM, mean (X)” value worked out at 243.9% and the “population spike amplitude, PTZ 50 μM, mean (X)” value was −2854.9 μV. In test [2] (single slices), the “population spike amplitude in % of ACSF value, PTZ 50 μM” value is 254.2% and 244.7% and 232.8% and 243.7%.
